The text below walks through data of patent EP2495244A1, “Piperidinyl benzoimidazole derivatives as mPGEs-1 inhibitors” (NovaSaid AB, priority 2011, dated 2012).

One experiment concerns cellular PGE2 synthesis. In words: A549 cell-assay (PGE2 content of supernatant by EIA). The format is cell-based. The following applies: Homo sapiens, A549 lung carcinoma cells, TNFalfa (5 ng/mL) and IL-1beta (5 ng/mL) 16 hours, 30 minutes with test compound, 10 µM arachidonic acid 30 minutes, arithmetic mean values. How it is done:
Prostaglandin detection kits were purchased from Cayman Chemicals and used according to the instruction of the manufacturer.
A549 lung carcinoma cells, seeded at a density of 10, 000 cells/well, were grown in 96 well tissue culture plates. TNFalfa (5 ng/mL) and IL-1beta (5 ng/mL) were added and the cells were incubated for 16 hours. Cells were washed in PBS and test compounds at the appropriate concentration in HBSS/0.1% BSA were added. After 30 minutes of incubation with test compounds, 10 µM arachidonic acid was added and cells were further incubated for 30 minutes. Supernatant was collected and analyzed for PGE2 content by EIA according to manufacturer's instructions. Table 1. Inhibition of human mPGEs-1 and cellular PGE2 synthesis.

In another experiment the target is T1, human mPGEs-1 (Homo sapiens, UniProt O14684).
T1 sequence (O14684 1-152): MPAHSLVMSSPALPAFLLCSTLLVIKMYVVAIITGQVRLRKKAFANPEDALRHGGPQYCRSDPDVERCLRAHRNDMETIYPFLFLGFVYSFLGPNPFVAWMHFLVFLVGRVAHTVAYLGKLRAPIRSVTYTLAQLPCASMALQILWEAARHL
In words: Thiobarbituric acid assay (TBA-MDA assay, malondialdehyde assay) for inhibition of mPGEs-1.

As usually defined, the IC50 is the concentration that gives 50% inhibition. A high value points to lower potency.

Regarding `O=C(N[C@@H]1CCOC1)C1CCN(c2nc3cc(Cl)c(Cl)cc3n2-c2ccc3ccccc3n2)CC1` [Example 1, (R)-1-(5,6-Dichloro-1-(quinolin-2-yl)-1H-benzo[d]imidazol-2-yl)-N-(tetrahydrofuran-3-yl)piperidine-4-carboxamide], it took 43 nM to reach half-maximal inhibition in the experiment on cellular PGE2 synthesis (IC50). For `Cc1cc2c(cc1Cl)nc(N1CCC(C(=O)N[C@@H]3CCOC3)CC1)n2-c1ccc2ccccc2n1` [Example 2, (R)-1-(5-Chloro-6-methyl-1-(quinolin-2-yl)-1H-benzo[d]imidazol-2-yl)-N-(tetrahydrofuran-3-yl)piperidine-4-carboxamide], the values for the IC50 against human mPGEs-1 and with cellular PGE2 synthesis were 25 nM and 58 nM, respectively.

For the compound `Cc1cc2nc(N3CCC(C(=O)N[C@@H]4CCOC4)CC3)n(-c3ccc4ccccc4n3)c2cc1Cl` [Example 3, (R)-1-(6-Chloro-5-methyl-1-(quinolin-2-yl)-1H-benzo[d]imidazol-2-yl)-N (tetrahydrofuran-3-yl)piperidine-4-carboxamide], the IC50 stood at 37 nM against human mPGEs-1 and 58 nM in the experiment with cellular PGE2 synthesis. For `O=C(N[C@@H]1CCOC1)C1CCN(c2nc3cc(Cl)c(Cl)cc3n2-c2ccc3cc(Cl)ccc3n2)CC1` [Example 4, (R)-1-(5,6-Dichloro-1-(6-chloroquinolin-2-yl)-1H-benzo[d]imidazol-2-yl)-N-(tetrahydrofuran-3-yl)piperidine-4-carboxamide], in that order: 35 nM and 44 nM. For `O=C(N[C@@H]1CCOC1)C1CCN(c2nc3cc(Cl)c(Cl)cc3n2-c2ccc3cccc(Cl)c3n2)CC1` [Example 5, (R)-1-(5,6-Dichloro-1-(8-chloroquinolin-2-yl)-1H-benzo[d]imidazol-2-yl)-N-(tetrahydrofuran-3-yl)piperidine-4-carboxamide] the same measures were 34 nM and 4 nM.

For `Cc1cc2nc(N3CCC(C(=O)N[C@@H]4CCOC4)CC3)n(-c3ccc4cc(Cl)ccc4n3)c2cc1C` [Example 6, (R)-1-(1-(6-Chloroquinolin-2-yl)-5,6-dimethyl-1H-benzo[d]imidazol-2-yl)-N-(tetrahydrofuran-3-yl)piperidine-4-carboxamide], the IC50 was 58 nM at human mPGEs-1 and 50 nM in the experiment with cellular PGE2 synthesis.

On to `Cc1cc(-n2c(N3CCC(C(=O)N[C@@H]4CCOC4)CC3)nc3cc(Cl)c(Cl)cc32)nc2ccccc12` [Example 7, (R)-1-(5,6-Dichloro-1-(4-methylquinolin-2-yl)-1H-benzo[d]imidazol-2-yl)-N-(tetrahydrofuran-3-yl)piperidine-4-carboxamide], for which the IC50 against human mPGEs-1 was 32 nM; in the experiment with cellular PGE2 synthesis, 30 nM. For `Cc1cc2c(cc1Cl)nc(N1CCC(C(=O)N[C@@H]3CCOC3)CC1)n2-c1ccc2cc(Cl)ccc2n1` [Example 8, (R)-1-(5-Chloro-1-(6-chloroquinolin-2-yl)-6-methyl-1H-benzo[d]imidazol-2-yl)-N-(tetrahydrofuran-3-yl)piperidine-4-carboxamide], in that order: 31 nM and 40 nM. For `Cc1cc2nc(N3CCC(C(=O)N[C@@H]4CCOC4)CC3)n(-c3ccc4cc(Cl)ccc4n3)c2cc1Cl` [Example 9, (R)-1-(6-Chloro-1-(6-chloroquinolin-2-yl)-5-methyl-1H-benzo[d]imidazol-2-yl)-N-(tetrahydrofuran-3-yl)piperidine-4-carboxamide] the same measures were 51 nM and 67 nM. For `O=C(N[C@@H]1CCOC1)C1CCN(c2nc3cc(Cl)c(Cl)cc3n2-c2ccc3cc(F)ccc3n2)CC1` [Example 10, (R)-1-(5,6-Dichloro-1-(6-fluoroquinolin-2-yl)-1H-benzo[d]imidazol-2-yl)-N-(tetrahydrofuran-3-yl)piperidine-4-carboxamide], in that order: 42 nM and 61 nM. In the case of `Cc1cc2c(cc1Cl)nc(N1CCC(C(=O)N[C@@H]3CCOC3)CC1)n2-c1ccc2cc(F)ccc2n1` [Example 11, (R)-1-(5-Chloro-1-(6-fluoroquinolin-2-yl)-6-methyl-1H-benzo[d]imidazol-2-yl)-N-(tetrahydrofuran-3-yl)piperidine-4-carboxamide], the half-maximal inhibitory concentration (IC50) against human mPGEs-1 amounted to 47 nM; in the experiment with cellular PGE2 synthesis it was 16 nM. For `Cc1cc2nc(N3CCC(C(=O)N[C@@H]4CCOC4)CC3)n(-c3ccc4cc(F)ccc4n3)c2cc1Cl` [Example 12, (R)-1-(6-Chloro-1-(6-fluoroquinolin-2-yl)-5-methyl-1H-benzo[d]imidazol-2-yl)-N-(tetrahydrofuran-3-yl)piperidine-4-carboxamide], in that order: 26 nM and 24 nM.

Compound `O=C(N[C@@H]1CCOC1)C1CCN(c2nc3cc(Cl)c(Cl)cc3n2-c2ccc3cccc(F)c3n2)CC1` [Example 13, (R)-1-(5,6-Dichloro-1-(8-fluoroquinolin-2-yl)-1H-benzo[d]imidazol-2-yl)-N-(tetrahydrofuran-3-yl)piperidine-4-carboxamide] came in with an IC50 against human mPGEs-1 of 30 nM. The same measure, in the same setting: under `O=C(N[C@@H]1CCOC1)C1CCN(c2nc3cc(Cl)c(Cl)cc3n2-c2cc3ccccc3cn2)CC1` [Example 14, (R)-1-(5,6-Dichloro-1-(isoquinolin-3-yl)-1H-benzo[d]imidazol-2-yl)-N-(tetrahydrofuran-3-yl)piperidine-4-carboxamide] stands 21 nM. Turning to `Cc1cc2nc(N3CCC(C(=O)N[C@@H]4CCOC4)CC3)n(-c3ccc4ncccc4c3)c2cc1C` [Example 15, (R)-1-(5,6-dimethyl-1-(quinolin-6-yl)-1H-benzo[d]imidazol-2-yl)-N-(tetrahydrofuran-3-yl)piperidine-4-carboxamide], the figures for the IC50 against human mPGEs-1 and with cellular PGE2 synthesis were 65 nM and 66 nM, respectively. On human mPGEs-1, `O=C(N[C@@H]1CCOC1)C1CCN(c2nc3cc(Cl)c(Cl)cc3n2-c2ccccn2)CC1` [Example 16, (R)-1-(5,6-dichloro-1-(pyridin-2-yl)-1H-benzo[d]imidazol-2-yl)-N-(tetrahydrofuran-3-yl)piperidine-4-carboxamide] gave an IC50 of 150 nM.
